Results from patent publication US20240059658A1 (Emory University, priority 2019, published 2024).
Read-outs that look alike come from different tables or passages of the source.

Tested on: EU-1
Test: WST cytotoxicity assay, cancer cell EU-1
Type: cell-based, human
Conditions: no other cell line named in the cell, read-out: Cancer cell (EU-1) cytotoxicity IC50
Procedure: This study used two ALL cell lines (EU-1 and EU-3) and three NB cell lines (NB-1643, SHEP1 and LA1-55N). All 5 cancer cell lines were established from pediatric ALL or NB patients and were well-characterized for their expression of MDM2 and p53-status, as reported previously. All cell lines were grown in standard culture medium (RPMI 1640 containing 10% FBS, 2 mmol/L L-glutamine, 50 U penicillin and 50 μg/mL streptomycin) at 37° C. in a humidified atmosphere containing 5% CO2.
The cytotoxic effect of MX 69 and MX69 analogs on cancer cells was determined using the water-soluble tetrazolium salt (WST) assay. Briefly, cells cultured in 96-well microtiter plates were treated with different concentrations of AQ-101 for a 20-h period. WST (25 μg/well) was then added and incubation continued for an additional 4 h, after which optical density (OD) was read with a microplate reader (test wavelength of 450 nm; reference wavelength of 620 nm).

Structure (SMILES)	IC50 (Homo sapiens, EU-1, EU-1) [µM]	IC50 (EU-1) [µM]
Cc1ccc(NS(=O)(=O)c2ccc3c(c2)C2OCC[C@H]2C(c2ccc(C(=O)C(C)C)cc2)N3)cc1 (stereo in doubt) [Compound 69L85, 4-(4-isobutyrylphenyl)-N-(p-tolyl)-2,3,3a,4,5,9b-hexahydrofuro[3,2-c]quinoline-8-sulfonamide]	3.33	–
CC(C)C(=O)c1ccc([C@@H]2Nc3ccc(S(=O)(=O)Nc4ccc(C(F)(F)F)c(C(F)(F)F)c4)cc3C3OCC[C@H]32)cc1 (stereo in doubt) [Compound 69L92, N-(3,4-bis(trifluoromethyl)phenyl)-4-(4-isobutyrylphenyl)-2,3,3a,4,5,9b-hexahydrofuro[3,2-c]quinoline-8-sulfonamide]	> 10	–
CCC(=O)c1cccc(NS(=O)(=O)c2ccc3c(c2)C2OCC[C@H]2C(c2ccc4c(c2)CCO4)N3)c1 (stereo in doubt) [Compound 69L127, 4-(2,3-dihydrobenzofuran-5-yl)-N-(3-propionylphenyl)-2,3,3a,4,5,9b-hexahydrofuro[3,2-c]quinoline-8-sulfonamide]	4.8	–
Cc1ccc(N(C)S(=O)(=O)c2ccc3c(c2)[C@H]2OCC[C@H]2C(c2ccc(C(=O)C(C)C)cc2)N3C)cc1C (stereo in doubt) [Compound 69L131, N-(3,4-dimethylphenyl)-4-(4-isobutyrylphenyl)-N,5-dimethyl-2,3,3a,4,5,9b-hexahydrofuro[3,2-c]quinoline-8-sulfonamide]	1.16	–
Cc1ccc(N(C)S(=O)(=O)c2ccc3c(c2)[C@H]2OCC[C@H]2[C@@H](c2ccc(C(=O)C(C)C)cc2)N3)cc1C (stereo in doubt) [Compound 69L132, N-(3,4-dimethylphenyl)-4-(4-isobutyrylphenyl)-N-methyl-2,3,3a,4,5,9b-hexahydrofuro[3,2-c]quinoline-8-sulfonamide]	1.57	–
Cc1ccc(N(C)S(=O)(=O)c2ccc3c(c2)[C@H]2OCC[C@H]2[C@H](c2ccc(C(=O)C(C)C)cc2)N3)cc1C (stereo in doubt) [Compound 69L133, N-(3,4-dimethylphenyl)-4-(4-isobutyrylphenyl)-N-methyl-2,3,3a,4,5,9b-hexahydrofuro[3,2-c]quinoline-8-sulfonamide]	1.58	–
Cc1ccc(S(=O)(=O)Nc2ccc3c(c2)[C@H]2OCC[C@H]2C(c2ccc(C(=O)C(C)C)cc2)N3)cc1C (stereo in doubt) [Compound 69L162, N-(4-(4-isobutyrylphenyl)-2,3,3a,4,5,9b-hexahydrofuro[3,2-c]quinolin-8-yl)-3,4-dimethylbenzenesulfonamide]	> 5	–
CC(=O)c1cccc(NS(=O)(=O)c2ccc3c(c2)C2NCC[C@H]2[C@H](c2ccc(C(=O)C(C)C)cc2)N3)c1 (stereo partly drawn) [69L130 cis]	> 10	–
CC(=O)c1cccc(NS(=O)(=O)c2ccc3c(c2)C2NCC[C@H]2[C@@H](c2ccc(C(=O)C(C)C)cc2)N3)c1 (stereo partly drawn) [69L130 trans]	> 10	–
COC(=O)c1ccc([C@@H]2Nc3ccc(S(=O)(=O)Nc4ccc(C)c(C)c4)cc3[C@H]3OCC[C@H]32)cc1 [Compound 69L2]	3.5 to 5.3	–
COC(=O)c1ccc([C@@H]2Nc3ccc(S(=O)(=O)Nc4ccc(C)c(C)c4)cc3[C@H]3c4ccccc4C[C@H]32)cc1 [Compound 69L3]	18.3	–
Cc1ccc(NS(=O)(=O)c2ccc3c(c2)[C@H]2OCC[C@H]2C(c2ccc(C(=O)O)cc2)N3)cc1C (stereo partly drawn) [Compound 69L4]	> 50	–
Cc1ccc(NS(=O)(=O)c2ccc3c(c2)[C@H]2OCC[C@H]2[C@H](c2ccc(C(=O)O)cc2)N3)cc1C [Compound 69L5]	> 50	–
Cc1ccc(NS(=O)(=O)c2ccc3c(c2)[C@H]2c4ccccc4C[C@H]2[C@H](c2ccc(C(=O)O)cc2)N3)cc1C [Compound 69L6]	20.5	–
Cc1ccc(NS(=O)(=O)c2ccc3c(c2)[C@H]2c4ccccc4C[C@H]2[C@H](c2ccc(Br)cc2)N3)cc1C [Compound 69L7]	> 50	–
Cc1ccc(NS(=O)(=O)c2ccc3c(c2)[C@H]2OCC[C@H]2C(c2ccc(Br)cc2)N3)cc1C (stereo partly drawn) [Compound 69L8]	3.61	–
COC(=O)c1ccc(C2Nc3ccc(S(=O)(=O)Nc4ccc(C)c(C)c4)cc3[C@H]3OCCC[C@@H]23)cc1 (stereo partly drawn) [Compound 69L9]	4.56	–
Cc1ccc(NS(=O)(=O)c2ccc3c(c2)[C@H]2OCCC[C@H]2C(c2ccc(C(=O)O)cc2)N3)cc1C (stereo partly drawn) [Compound 69L10]	> 50	–
COC(=O)c1ccc([C@H]2Nc3ccc(S(=O)(=O)Nc4ccc(C)c(C)c4)cc3C3OCCC32)cc1 (stereo partly drawn) [Compound 69L12]	3 to 3.9	–
COC(=O)c1ccc([C@@H]2Nc3ccc(S(=O)(=O)Nc4ccc(C)c(C)c4)cc3[C@H]3OCC[C@H]32)cc1 [Compound 69L13]	–	6.4 to 9
COC(=O)c1ccc([C@@]2(N)C[C@H](c3ccc(Cl)cc3)c3cc(S(=O)(=O)Nc4ccc(C)c(C)c4)ccc3N2)cc1 [Compound 69L14]	> 50	–
Cc1ccc(NS(=O)(=O)c2ccc3c(c2)[C@H]2OCC[C@H]2C(c2ccc(-n4ccccc4=O)cc2)N3)cc1C (stereo partly drawn) [Compound 69L15]	17.9	–
COC(=O)c1ccc([C@@H]2Nc3ccc(S(=O)(=O)Nc4ccc(C)c(C)c4)cc3[C@H]3C=CC[C@H]32)cc1 [Compound 69L16]	4.66	–
Cc1ccc(NS(=O)(=O)c2ccc3c(c2)[C@H]2OCC[C@H]2C(c2ccc(B4OCC(C)(C)CO4)cc2)N3)cc1C (stereo partly drawn) [Compound 69L17]	8.69	–
Cc1ccc(NS(=O)(=O)c2ccc3c(c2)[C@H]2OCC[C@H]2C(c2ccc(B(O)O)cc2)N3)cc1C (stereo partly drawn) [Compound 69L18]	14.7	–
Cc1ccc(NS(=O)(=O)c2ccc3c(c2)[C@H]2OCC[C@H]2C(c2ccc(S(C)(=O)=O)cc2)N3)cc1C (stereo partly drawn) [Compound 69L19]	4.06	–

Structure (SMILES)	IC50 (Homo sapiens, EU-1, EU-1) [µM]	IC50 (EU-1) [µM]
Cc1ccc(NS(=O)(=O)c2ccc3c(c2)[C@H]2C=CC[C@H]2[C@H](c2ccc(S(C)(=O)=O)cc2)N3)cc1C [Compound 69L21]	6.18	–
COC(=O)c1ccc([C@@H]2Nc3cc(Cl)c(S(=O)(=O)Nc4ccc(C)c(C)c4)cc3[C@H]3C=CC[C@H]32)cc1 [Compound 69L22]	19.3	–
Cc1ccc(NS(=O)(=O)c2ccc3c(c2Cl)[C@H]2C=CC[C@H]2[C@H](c2ccc(S(C)(=O)=O)cc2)N3)cc1C [Compound 69L23]	23.4	–
Cc1ccc(NS(=O)(=O)c2cc3c(cc2Cl)N[C@@H](c2ccc(S(C)(=O)=O)cc2)[C@@H]2CC=C[C@H]32)cc1C [Compound 69L24]	> 50	–
COC(=O)c1ccc([C@H]2Nc3cc(Cl)c(S(=O)(=O)Nc4ccc(C)c(C)c4)cc3[C@H]3OCC[C@@H]23)cc1 [Compound 69L25]	> 50	–
COC(=O)c1ccc([C@@H]2Nc3cc(Cl)c(S(=O)(=O)Nc4ccc(C)c(C)c4)cc3[C@H]3OCC[C@H]32)cc1 [Compound 69L26]	> 50	–
COC(=O)c1ccc([C@H]2Nc3ccc(S(=O)(=O)Nc4ccc(C)c(C)c4)cc3[C@H]3OCC[C@@H]23)cc1 [Compound 69L28]	8.4 to 11.9	–
COC(=O)c1ccc([C@@H]2Nc3ccc(S(=O)(=O)Nc4ccc(C)c(C)c4)cc3[C@@H]3OCC[C@H]23)cc1 [Compound 69L29]	2 to 2.7	–
Cc1ccc(NS(=O)(=O)c2ccc3c(c2)[C@H]2OCC[C@H]2C(c2ccc(C(C)C)cc2)N3)cc1C (stereo partly drawn) [Compound 69L31]	4.24	–
CCO[C@H]1C[C@H](c2ccc(C(=O)OC)cc2)Nc2ccc(S(=O)(=O)Nc3ccc(C)c(C)c3)cc21 [Compound 69L32]	7.28	–
COC(=O)c1ccc(C2Nc3c(Cl)cc(S(=O)(=O)Nc4ccc(C)c(C)c4)cc3C3OCC[C@@H]23)cc1 (stereo partly drawn) [Compound 69L33]	> 50	–
COC(=O)c1ccc(C2Nc3ccc(S(=O)(=O)Nc4ccc(C)c(C)c4)cc3C3NCC[C@@H]23)cc1 (stereo partly drawn) [Compound 69L34]	3.44	–
COC(=O)c1ccc([C@H]2Nc3ccc(S(=O)(=O)Nc4ccc(C)c(C)c4)cc3C3NCC[C@H]32)cc1 (stereo partly drawn) [Compound 69L35]	4.86	–
Cc1ccc(NS(=O)(=O)c2ccc3c(c2)C2OCC[C@H]2[C@@H](c2c[nH]c4ccccc24)N3)cc1C (stereo partly drawn) [Compound 69L36]	9.2	–
Cc1ccc(NS(=O)(=O)c2ccc3c(c2)C2NCC[C@H]2C(c2c[nH]c4ccccc24)N3)cc1C (stereo partly drawn) [Compound 69L37]	4.81	–
Cc1ccc(NS(=O)(=O)c2ccc3c(c2)C(O)C[C@H](c2ccc(C(=O)O)cc2)N3)cc1C (stereo partly drawn) [Compound 69L40]	> 50	–
Cc1ccc(NS(=O)(=O)c2ccc3c(c2)C2NCC[C@H]2[C@H](c2ccc(C(=O)O)cc2)N3)cc1C (stereo partly drawn) [Compound 69L41]	> 50	–
Cc1ccc(NS(=O)(=O)c2ccc3c(c2)C2[C@@H](CCN2C(=O)OC(C)(C)C)C(c2ccc(S(C)(=O)=O)cc2)N3)cc1C (stereo partly drawn) [Compound 69L42]	19.9	–
Cc1ccc(NS(=O)(=O)c2ccc3c(c2)C2NCC[C@H]2[C@@H](c2ccc(S(C)(=O)=O)cc2)N3)cc1C (stereo partly drawn) [Compound 69L43]	12	–
Cc1ccc(NS(=O)(=O)c2ccc3c(c2)C2NCC[C@H]2[C@H](c2ccc(S(C)(=O)=O)cc2)N3)cc1C (stereo partly drawn) [Compound 69L44]	44.9	–
CCOC1C[C@@H](c2ccc(C(C)=O)cc2)Nc2ccc(S(=O)(=O)Nc3ccc(C)c(C)c3)cc21 (stereo partly drawn) [Compound 69L46]	6.5	–
CC(=O)c1ccc([C@@H]2CC(O)c3cc(S(=O)(=O)Nc4ccc(C)c(C)c4)ccc3N2)cc1 (stereo partly drawn) [Compound 69L47]	2.1	–
CC(=O)c1ccc([C@H]2Nc3ccc(S(=O)(=O)Nc4ccc(C)c(C)c4)cc3C3NCC[C@H]32)cc1 (stereo partly drawn) [Compound 69L49]	4.6	–
CC(=O)c1ccc([C@@H]2Nc3ccc(S(=O)(=O)Nc4ccc(C)c(C)c4)cc3C3NCC[C@H]32)cc1 (stereo partly drawn) [Compound 69L50]	4.1	–
CC(=O)Nc1ccc(C2Nc3ccc(S(=O)(=O)Nc4ccc(C)c(C)c4)cc3C3OCC[C@@H]23)cc1 (stereo partly drawn) [Compound 69L51]	4.5	–
